39 compounds from ChEMBL document CHEMBL6114977, “Identification and optimization of a small molecule inhibitor of the ovarian tumor protease of the Crimean-Congo hemorrhagic fever virus” (Bioorg Med Chem, 2025) can be followed below.

The source made the active and inactive calls. No cut-off for these calls is given here. Bounds are passed on as bounds.

For series [1], the target named is T1, RNA-directed RNA polymerase L (Crimean-Congo hemorrhagic fever virus, UniProt Q6TQR6). As to the kind of experiment: (§1) Inhibition of CCHF OTU (ovarian tumor) protease (1 to 169 residues) extracted from Escherichia coli BL21 (DE3) cells using ubiquitin rhodamine 110 as substrate incubated for 30 mins by fluorescence based SynergyH1 plate reader analysis.
Series [2] has as its target T1, RNA-directed RNA polymerase L. As to the kind of experiment: Inhibition of CCHF OTU (ovarian tumor) protease (1 to 169 residues) extracted from Escherichia coli BL21 (DE3) cells assessed as inhibition constant by fluorescence based SynergyH1 plate reader analysis.
Series [3] addresses T2, OTU domain-containing protein 1 (Homo sapiens) (UniProt Q5VV17).
T2 sequence (whole entry): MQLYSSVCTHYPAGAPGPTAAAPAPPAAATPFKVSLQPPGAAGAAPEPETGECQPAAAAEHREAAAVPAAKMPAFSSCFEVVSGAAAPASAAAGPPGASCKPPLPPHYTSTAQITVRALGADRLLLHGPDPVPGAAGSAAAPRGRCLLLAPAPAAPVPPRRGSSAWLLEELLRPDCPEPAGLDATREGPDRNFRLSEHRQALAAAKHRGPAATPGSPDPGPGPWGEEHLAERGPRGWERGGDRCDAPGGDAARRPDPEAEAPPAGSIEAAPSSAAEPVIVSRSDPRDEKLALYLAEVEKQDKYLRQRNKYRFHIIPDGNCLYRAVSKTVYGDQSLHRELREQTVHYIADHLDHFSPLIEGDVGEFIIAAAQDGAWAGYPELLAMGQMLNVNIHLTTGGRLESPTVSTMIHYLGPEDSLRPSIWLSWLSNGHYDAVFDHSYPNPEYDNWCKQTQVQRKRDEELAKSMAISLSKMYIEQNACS
Nature of the series: Inhibition of human OTUD1 using ubiquitin rhodamine 110 as substrate at 50 uM incubated for 30 mins by fluorescence based SynergyH1 plate reader analysis.

Series [4] has as its target T3, Ubiquitin carboxyl-terminal hydrolase isozyme L5 (Homo sapiens) (UniProt Q9Y5K5).
T3 sequence (whole entry): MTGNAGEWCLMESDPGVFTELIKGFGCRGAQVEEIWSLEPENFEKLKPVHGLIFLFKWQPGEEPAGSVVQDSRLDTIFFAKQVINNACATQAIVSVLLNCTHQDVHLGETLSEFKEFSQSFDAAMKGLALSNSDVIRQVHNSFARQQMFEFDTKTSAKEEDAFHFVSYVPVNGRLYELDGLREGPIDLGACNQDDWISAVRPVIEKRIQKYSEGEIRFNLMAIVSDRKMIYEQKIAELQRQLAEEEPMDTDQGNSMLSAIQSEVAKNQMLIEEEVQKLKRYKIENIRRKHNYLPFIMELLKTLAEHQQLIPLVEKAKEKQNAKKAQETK
Nature of the series: Inhibition of human UCHL5 using ubiquitin rhodamine 110 as substrate at 50 uM incubated for 30 mins by fluorescence based SynergyH1 plate reader analysis.

Series [5] concerns the target Ubiquitin carboxyl-terminal hydrolase 7 (Homo sapiens) (UniProt Q93009). Nature of the series: Inhibition of human USP7 using ubiquitin rhodamine 110 as substrate at 50 uM incubated for 30 mins by fluorescence based SynergyH1 plate reader analysis.
The target of series [6] is T4, OTU domain-containing protein 7B (Homo sapiens) (UniProt Q6GQQ9).
T4 sequence (whole entry): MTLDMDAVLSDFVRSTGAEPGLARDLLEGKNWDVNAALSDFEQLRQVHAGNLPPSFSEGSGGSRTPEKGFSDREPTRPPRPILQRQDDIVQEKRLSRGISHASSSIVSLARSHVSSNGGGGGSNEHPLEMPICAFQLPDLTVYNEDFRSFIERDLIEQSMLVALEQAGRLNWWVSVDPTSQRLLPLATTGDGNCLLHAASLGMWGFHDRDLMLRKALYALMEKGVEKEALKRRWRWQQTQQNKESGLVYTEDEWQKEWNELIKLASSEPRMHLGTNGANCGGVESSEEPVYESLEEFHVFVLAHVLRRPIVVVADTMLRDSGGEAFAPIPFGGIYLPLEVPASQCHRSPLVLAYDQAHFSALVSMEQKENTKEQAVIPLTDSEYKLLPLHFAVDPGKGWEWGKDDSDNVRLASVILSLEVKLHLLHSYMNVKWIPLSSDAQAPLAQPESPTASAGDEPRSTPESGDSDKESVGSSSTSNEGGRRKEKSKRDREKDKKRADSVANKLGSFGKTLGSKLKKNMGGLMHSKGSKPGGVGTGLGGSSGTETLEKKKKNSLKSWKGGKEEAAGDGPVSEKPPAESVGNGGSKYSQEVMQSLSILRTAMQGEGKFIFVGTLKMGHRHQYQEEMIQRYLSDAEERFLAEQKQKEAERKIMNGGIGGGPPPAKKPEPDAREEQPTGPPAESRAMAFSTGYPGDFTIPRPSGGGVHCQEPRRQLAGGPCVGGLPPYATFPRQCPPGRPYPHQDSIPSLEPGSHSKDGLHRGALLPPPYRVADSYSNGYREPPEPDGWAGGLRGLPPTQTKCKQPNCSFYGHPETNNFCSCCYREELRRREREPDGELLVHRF
As to the kind of experiment: Inhibition of human cezanne using ubiquitin rhodamine 110 as substrate at 50 uM incubated for 30 mins by fluorescence based SynergyH1 plate reader analysis.

Series [7] has as its system Fc1cc(Nc2nc(-c3ccc(C(F)(F)F)cc3)cs2)ccc1-c1nnn[nH]1. As to the kind of experiment: Competitive inhibition of CCHF OTU (ovarian tumor) protease (1 to 169 residues) extracted from Escherichia coli BL21 (DE3) cells using ubiquitin rhodamine 110 as substrate assessed as Km by Michaelis-Menten analysis (reference value: 31.6 nM). The note with it: Crimean-Congo hemorrhagic fever virus.

Series [8] concerns the target RNA-directed RNA polymerase L (Crimean-Congo hemorrhagic fever virus) (UniProt Q6TQR6). The description is as §1.

Chain of Ubiquitin carboxyl-terminal hydrolase 7 (Homo sapiens) (Q93009 whole entry, looked up, the tested form may be a part): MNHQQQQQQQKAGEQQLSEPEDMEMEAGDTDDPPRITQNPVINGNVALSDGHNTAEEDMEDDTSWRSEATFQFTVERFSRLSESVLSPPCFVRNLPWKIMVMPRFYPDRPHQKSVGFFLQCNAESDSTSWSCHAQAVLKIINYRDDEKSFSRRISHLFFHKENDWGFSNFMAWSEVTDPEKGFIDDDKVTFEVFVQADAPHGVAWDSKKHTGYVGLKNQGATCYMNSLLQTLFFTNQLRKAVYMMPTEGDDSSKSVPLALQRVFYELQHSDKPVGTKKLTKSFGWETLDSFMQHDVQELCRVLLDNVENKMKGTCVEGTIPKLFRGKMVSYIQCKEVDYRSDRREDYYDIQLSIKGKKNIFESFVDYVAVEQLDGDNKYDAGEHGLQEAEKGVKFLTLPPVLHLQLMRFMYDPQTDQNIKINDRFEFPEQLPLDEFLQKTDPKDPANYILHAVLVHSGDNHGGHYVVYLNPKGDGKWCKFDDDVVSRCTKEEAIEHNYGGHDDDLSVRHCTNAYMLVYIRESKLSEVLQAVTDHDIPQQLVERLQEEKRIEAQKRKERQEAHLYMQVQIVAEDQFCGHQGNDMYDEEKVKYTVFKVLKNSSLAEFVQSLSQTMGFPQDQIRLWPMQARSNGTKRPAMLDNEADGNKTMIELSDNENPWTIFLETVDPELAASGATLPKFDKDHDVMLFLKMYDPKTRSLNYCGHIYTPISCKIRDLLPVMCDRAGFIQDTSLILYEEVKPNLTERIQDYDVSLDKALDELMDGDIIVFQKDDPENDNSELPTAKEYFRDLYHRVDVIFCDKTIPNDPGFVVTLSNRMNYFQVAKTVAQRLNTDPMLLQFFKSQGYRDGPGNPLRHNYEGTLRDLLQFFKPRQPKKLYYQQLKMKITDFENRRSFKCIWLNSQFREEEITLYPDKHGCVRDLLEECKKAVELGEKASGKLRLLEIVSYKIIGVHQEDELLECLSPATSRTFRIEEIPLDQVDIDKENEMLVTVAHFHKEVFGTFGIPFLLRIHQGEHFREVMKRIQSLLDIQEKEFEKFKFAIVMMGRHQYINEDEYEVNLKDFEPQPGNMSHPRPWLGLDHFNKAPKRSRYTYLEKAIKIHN
T1 sequence (Q6TQR6 whole entry, the tested form may be a part): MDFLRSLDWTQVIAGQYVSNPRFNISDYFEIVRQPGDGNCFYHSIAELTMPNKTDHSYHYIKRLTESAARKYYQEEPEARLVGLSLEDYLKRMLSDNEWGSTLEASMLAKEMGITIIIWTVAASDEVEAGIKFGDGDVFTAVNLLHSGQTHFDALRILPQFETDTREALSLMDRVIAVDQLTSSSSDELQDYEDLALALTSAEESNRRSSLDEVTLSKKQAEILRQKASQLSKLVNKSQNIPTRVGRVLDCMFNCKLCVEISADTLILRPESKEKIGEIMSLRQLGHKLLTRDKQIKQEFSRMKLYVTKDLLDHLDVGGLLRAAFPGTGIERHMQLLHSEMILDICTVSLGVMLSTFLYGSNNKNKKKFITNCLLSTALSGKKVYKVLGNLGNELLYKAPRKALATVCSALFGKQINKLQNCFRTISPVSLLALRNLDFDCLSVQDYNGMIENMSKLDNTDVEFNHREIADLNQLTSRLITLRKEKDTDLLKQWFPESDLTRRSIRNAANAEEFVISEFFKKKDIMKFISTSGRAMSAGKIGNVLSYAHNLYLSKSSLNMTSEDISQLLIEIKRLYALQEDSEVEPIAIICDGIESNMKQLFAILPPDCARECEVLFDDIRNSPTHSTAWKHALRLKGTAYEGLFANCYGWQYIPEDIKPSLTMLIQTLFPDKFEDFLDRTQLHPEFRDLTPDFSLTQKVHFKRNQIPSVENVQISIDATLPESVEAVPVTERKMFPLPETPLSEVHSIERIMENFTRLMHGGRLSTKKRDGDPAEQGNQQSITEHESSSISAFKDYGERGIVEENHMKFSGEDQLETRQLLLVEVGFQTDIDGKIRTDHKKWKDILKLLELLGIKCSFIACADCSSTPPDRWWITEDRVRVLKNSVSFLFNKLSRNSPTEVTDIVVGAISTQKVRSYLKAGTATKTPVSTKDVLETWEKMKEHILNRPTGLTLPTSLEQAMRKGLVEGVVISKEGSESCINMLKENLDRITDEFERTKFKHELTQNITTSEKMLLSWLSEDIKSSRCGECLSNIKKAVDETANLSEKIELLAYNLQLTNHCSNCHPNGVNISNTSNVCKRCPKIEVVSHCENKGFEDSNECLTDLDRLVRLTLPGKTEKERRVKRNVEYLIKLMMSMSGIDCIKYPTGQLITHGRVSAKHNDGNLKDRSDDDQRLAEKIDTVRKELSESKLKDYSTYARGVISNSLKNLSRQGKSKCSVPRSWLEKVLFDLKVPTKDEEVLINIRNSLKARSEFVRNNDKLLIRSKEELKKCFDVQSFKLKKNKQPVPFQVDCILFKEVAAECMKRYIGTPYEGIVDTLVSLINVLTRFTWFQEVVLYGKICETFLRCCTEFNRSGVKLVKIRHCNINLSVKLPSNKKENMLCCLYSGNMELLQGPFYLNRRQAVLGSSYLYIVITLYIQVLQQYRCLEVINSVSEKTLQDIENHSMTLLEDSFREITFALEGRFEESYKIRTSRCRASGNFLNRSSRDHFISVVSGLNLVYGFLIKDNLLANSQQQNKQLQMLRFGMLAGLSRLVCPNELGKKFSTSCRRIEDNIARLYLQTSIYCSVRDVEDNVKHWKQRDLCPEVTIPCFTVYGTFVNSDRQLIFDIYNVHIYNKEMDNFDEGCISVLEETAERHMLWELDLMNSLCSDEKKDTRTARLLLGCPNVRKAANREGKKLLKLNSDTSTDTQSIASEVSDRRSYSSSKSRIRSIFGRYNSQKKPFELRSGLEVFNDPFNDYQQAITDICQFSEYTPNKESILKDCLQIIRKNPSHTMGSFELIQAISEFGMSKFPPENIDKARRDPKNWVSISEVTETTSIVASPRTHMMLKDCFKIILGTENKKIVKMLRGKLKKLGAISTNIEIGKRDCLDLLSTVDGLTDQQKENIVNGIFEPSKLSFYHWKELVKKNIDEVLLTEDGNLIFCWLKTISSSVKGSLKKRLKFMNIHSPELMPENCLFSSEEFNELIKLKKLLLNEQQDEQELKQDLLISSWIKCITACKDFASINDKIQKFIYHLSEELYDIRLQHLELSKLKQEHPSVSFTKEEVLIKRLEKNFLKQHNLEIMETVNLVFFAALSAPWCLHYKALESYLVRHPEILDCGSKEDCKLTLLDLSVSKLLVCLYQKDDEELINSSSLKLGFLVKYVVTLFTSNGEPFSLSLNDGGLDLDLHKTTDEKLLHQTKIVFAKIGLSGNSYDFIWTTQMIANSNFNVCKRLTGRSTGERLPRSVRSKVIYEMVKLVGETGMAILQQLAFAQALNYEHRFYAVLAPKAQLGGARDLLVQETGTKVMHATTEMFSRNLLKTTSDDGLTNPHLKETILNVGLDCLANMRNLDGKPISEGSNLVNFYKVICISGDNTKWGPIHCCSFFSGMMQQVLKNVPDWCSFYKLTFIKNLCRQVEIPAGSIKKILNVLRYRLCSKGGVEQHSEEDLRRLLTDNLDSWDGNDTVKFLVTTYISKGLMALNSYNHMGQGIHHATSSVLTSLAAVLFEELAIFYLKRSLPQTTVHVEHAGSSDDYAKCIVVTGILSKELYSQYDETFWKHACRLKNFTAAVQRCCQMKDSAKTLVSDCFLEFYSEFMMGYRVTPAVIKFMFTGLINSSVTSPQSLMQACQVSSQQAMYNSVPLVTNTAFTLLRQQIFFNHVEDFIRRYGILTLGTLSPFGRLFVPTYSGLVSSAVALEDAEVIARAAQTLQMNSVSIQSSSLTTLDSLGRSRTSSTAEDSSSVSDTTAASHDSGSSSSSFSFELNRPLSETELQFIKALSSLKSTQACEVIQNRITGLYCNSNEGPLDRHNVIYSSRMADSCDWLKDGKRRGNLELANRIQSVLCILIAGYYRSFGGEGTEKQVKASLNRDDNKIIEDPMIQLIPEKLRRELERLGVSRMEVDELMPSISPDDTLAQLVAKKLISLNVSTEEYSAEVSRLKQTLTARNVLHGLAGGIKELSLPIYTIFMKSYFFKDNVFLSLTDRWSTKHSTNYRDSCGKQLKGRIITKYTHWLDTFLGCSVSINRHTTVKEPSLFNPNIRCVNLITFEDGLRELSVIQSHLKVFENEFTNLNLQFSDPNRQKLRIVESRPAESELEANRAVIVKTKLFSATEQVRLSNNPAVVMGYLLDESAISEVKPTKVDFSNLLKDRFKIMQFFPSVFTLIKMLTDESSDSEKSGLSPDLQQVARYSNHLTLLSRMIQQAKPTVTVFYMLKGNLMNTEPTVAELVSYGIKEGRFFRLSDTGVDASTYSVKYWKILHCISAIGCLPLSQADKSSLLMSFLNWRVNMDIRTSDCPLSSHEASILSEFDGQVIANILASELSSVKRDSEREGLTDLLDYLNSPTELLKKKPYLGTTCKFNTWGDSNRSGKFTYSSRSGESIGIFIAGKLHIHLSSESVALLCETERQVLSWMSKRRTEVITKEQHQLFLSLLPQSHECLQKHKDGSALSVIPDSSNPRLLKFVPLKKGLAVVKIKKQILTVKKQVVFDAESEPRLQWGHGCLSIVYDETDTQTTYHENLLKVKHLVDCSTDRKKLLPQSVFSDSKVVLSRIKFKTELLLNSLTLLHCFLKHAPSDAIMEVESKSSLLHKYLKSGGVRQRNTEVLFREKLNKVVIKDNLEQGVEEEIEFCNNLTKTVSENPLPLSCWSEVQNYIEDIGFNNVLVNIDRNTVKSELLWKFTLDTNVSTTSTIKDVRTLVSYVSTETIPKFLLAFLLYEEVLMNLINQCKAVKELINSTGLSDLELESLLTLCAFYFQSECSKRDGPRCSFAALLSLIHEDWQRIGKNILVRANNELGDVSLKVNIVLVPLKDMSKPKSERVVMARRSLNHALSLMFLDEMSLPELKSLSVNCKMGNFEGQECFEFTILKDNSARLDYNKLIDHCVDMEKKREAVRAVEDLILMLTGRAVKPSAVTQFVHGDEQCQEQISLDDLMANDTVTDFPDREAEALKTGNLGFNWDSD

Turning to `Cc1cc(NS(=O)(=O)c2ccc(Nc3nc(-c4ccccc4)cs3)cc2)no1`, in series [1], the IC50 was more than 100 µM. For the compound `FC(F)(F)c1ccc(-c2csc(Nc3ccc(-c4nnn[nH]4)c(C(F)(F)F)c3)n2)cc1`, the IC50 in series [1] was 12.8 µM. Further, the Ki in series [2] turned out to be 7.8 µM. For the same compound, the inhibition entry in series [3], in series [4], in series [5] and in series [6] was “Active” throughout. `N#Cc1ccc(Nc2nc(-c3ccc(C(F)(F)F)cc3)cs2)cc1`: the IC50 in series [1] was more than 100 µM. Regarding `Fc1cc(Nc2nc(-c3ccc(C(F)(F)F)cc3)cs2)ccc1-c1nnn[nH]1`, the IC50 in series [1] stood at 10.7 µM. For the same compound, the inhibition constant (Ki) in series [2] came out at 6.6 µM. The inhibition entry in series [3], in series [4], in series [5] and in series [6] was “Active” each time. In the case of `FC(F)(F)c1ccc(-c2csc(Nc3ccc(-c4nnn[nH]4)c(Cl)c3)n2)cc1`, the IC50 in series [1] came to 11.9 µM. For the same compound, the Ki in series [2] was 7.3 µM. Also, the inhibition entry in series [3], in series [4], in series [5] and in series [6] was “Active” in each case. `O=S(=O)(O)c1ccc(Nc2nc(-c3ccc(C(F)(F)F)cc3)cs2)cc1`: the IC50 in series [1] came out at 41.8 µM. Besides, in series [2], the Ki turned out to be 25.6 µM. Consider `Cc1cc(-c2nnn[nH]2)ccc1Nc1nc(-c2ccc(C(F)(F)F)cc2)cs1`, for which, in series [1], the IC50 is 19.4 µM. For the same compound, the Ki in series [2] is 11.9 µM. Further, in series [5], the inhibition result is “Active”. Take `COc1ccc(-c2csc(Nc3ccc(S(=O)(=O)Nc4cc(C)on4)cc3)n2)cc1`: the half-maximal inhibitory concentration (IC50) in series [1] was more than 100 µM. The same measure, in the same setting: the result for `Cc1cc(NS(=O)(=O)c2ccc(Nc3nc(-c4ccc(O)cc4)cs3)cc2)no1` reads more than 100 µM; that for `Cc1cc(NS(=O)(=O)c2ccc(Nc3nc(-c4cccnc4)cs3)cc2)no1`, more than 100 µM.

Turning to “RNA-directed RNA polymerase L (Crimean-Congo hemorrhagic fever virus), Q6TQR6”, the Michaelis constant (Km) in series [7] was determined as 0.264 µM. As for `Cc1cc(NS(=O)(=O)c2ccc(Nc3nc(-c4cccc(F)c4)cs3)cc2)no1`, in series [1], the IC50 is more than 100 µM.

Consider `FC(F)(F)c1ccc(-c2ccnc(Nc3ccc(-c4nnn[nH]4)cc3)n2)cc1`, for which the half-inhibitory concentration (IC50) in series [1] worked out at 38.4 µM. Also, the Ki in series [2] was 23.5 µM. The inhibition entry in series [5] is “Active”. With `FC(F)(F)c1ccc(-c2csc(Nc3ccc(-n4cnnn4)cc3)n2)cc1`, in series [1], the IC50 is more than 100 µM. For `COc1cc(-c2nnn[nH]2)ccc1Nc1nc(-c2ccc(C(F)(F)F)cc2)cs1`, the IC50 in series [1] was determined as 29.8 µM. Besides, the Ki in series [2] was determined as 18.2 µM. For the same compound, the inhibition result in series [5] is “Active”. Consider `Cc1cc(NS(=O)(=O)c2ccc(Nc3nc(-c4ccc(C(F)(F)F)cc4)cs3)cc2)no1`, for which the IC50 in series [1] came out at 51 µM. Moreover, the Ki in series [2] worked out at 31.2 µM. With `Cc1cc(NS(=O)(=O)c2ccc(Nc3nc(-c4ccccc4Cl)cs3)cc2)no1`, the IC50 in series [1] is more than 100 µM.

`Cc1cc(NS(=O)(=O)c2ccc(Nc3nc(-c4ccccc4F)cs3)cc2)no1`: in series [1], the IC50 is more than 100 µM. Consider `CN(c1ccc(-c2nnn[nH]2)cc1)c1nc(-c2ccc(C(F)(F)F)cc2)cs1`, for which, in series [1], the half-inhibitory concentration (IC50) was 19 µM. For the same compound, the Ki in series [2] was determined as 11.6 µM. For `COc1ccccc1-c1csc(Nc2ccc(S(=O)(=O)Nc3cc(C)on3)cc2)n1`, the IC50 in series [1] is more than 100 µM.

With `FC(F)(F)c1ccc(-c2csc(Nc3ccc(-c4nnn[nH]4)cn3)n2)cc1`, in series [1], the 50% inhibitory concentration (IC50) was found to be 18.2 µM. Further, the Ki in series [2] is 11.1 µM. Also, the inhibition entry in series [5] was “Active”. `Cc1cc(Nc2nc(-c3ccc(C(F)(F)F)cc3)cs2)ccc1-c1nnn[nH]1`: the IC50 in series [1] worked out at 20 µM. The inhibitory constant (Ki) in series [2] was 12.2 µM. Turning to `Cc1cc(NS(=O)(=O)c2ccc(Nc3nc(-c4ccc(Br)cc4)cs3)cc2)no1`, in series [1], the IC50 is 54.3 µM. In series [2], the Ki was found to be 33.2 µM. For the compound `NS(=O)(=O)c1ccc(Nc2nc(-c3ccc(C(F)(F)F)cc3)cs2)cc1`, in series [1], the IC50 was more than 100 µM. The same measure, in the same setting: in the case of `Cc1cc(NS(=O)(=O)c2ccc(Nc3nc(-c4ccc(C#N)cc4)cs3)cc2)no1` it was more than 100 µM.

With `COc1cccc(-c2csc(Nc3ccc(S(=O)(=O)Nc4cc(C)on4)cc3)n2)c1`, in series [1], the concentration for half-maximal inhibition (IC50) is more than 100 µM. As for `Cc1cc(NS(=O)(=O)c2ccc(Nc3nc(-c4ccc(OC(F)(F)F)cc4)cs3)cc2)no1`, the half-inhibitory concentration (IC50) in series [1] was more than 100 µM. Same read-out and setting: in the case of `O=C(O)c1ccc(Nc2nc(-c3ccc(C(F)(F)F)cc3)cs2)cc1` it was more than 50 µM; in that of `FC(F)(F)c1ccc(-c2csc(Nc3ccc(-c4nnn[nH]4)nc3)n2)cc1`, more than 100 µM.

`Cc1cc(NS(=O)(=O)c2ccc(Nc3nc(-c4ccccc4C(F)(F)F)cs3)cc2)no1`: in series [1], the IC50 was more than 100 µM.

For `Cc1cc(NS(=O)(=O)c2ccc(Nc3nc(-c4ccccn4)cs3)cc2)no1`, the IC50 in series [1] is more than 100 µM. For `Cc1cc(NS(=O)(=O)c2ccc(Nc3nc(-c4ccc(O)cc4O)cs3)cc2)no1`, the inhibition entry in series [8] is “Dose-dependent-effect”. The IC50 in series [1] is 42.3 µM. Also, the Ki in series [2] turned out to be 25.9 µM. In the case of `O=C(O)Cc1ccc(Nc2nc(-c3ccc(C(F)(F)F)cc3)cs2)cc1`, the IC50 in series [1] was more than 100 µM. Consider `Cc1cc(NS(=O)(=O)c2ccc(Nc3nc(-c4ccc(F)cc4)cs3)cc2)no1`, for which the IC50 in series [1] was 86 µM. Further, the Ki in series [2] amounted to 52.7 µM. With `FC(F)(F)c1ccc(-c2csc(Nc3ccc(-c4nnn[nH]4)cc3)n2)cc1`, in series [1], the IC50 was determined as 16.7 µM. The Ki in series [2] worked out at 10.2 µM. For the same compound, the inhibition entry in series [5] is “Active”.

On to `Cc1cc(NS(=O)(=O)c2ccc(Nc3nc(-c4cccc(C(F)(F)F)c4)cs3)cc2)no1`, for which, in series [1], the IC50 is more than 100 µM. Regarding `FC(F)(F)c1ccc(-c2coc(Nc3ccc(-c4nnn[nH]4)cc3)n2)cc1`, the IC50 in series [1] was 18.2 µM. The Ki in series [2] came out at 11.1 µM. Moreover, in series [5], the inhibition entry was “Active”.

On to `Cc1cc(NS(=O)(=O)c2ccc(Nc3nc(-c4ccc(Cl)cc4)cs3)cc2)no1`, for which, in series [1], the IC50 worked out at 62.9 µM. In series [2], the Ki turned out to be 38.5 µM. Take `FC(F)(F)c1ccc(-c2csc(Nc3ccc(-c4nnn[nH]4)c4c3CCC4)n2)cc1`: the IC50 in series [1] came out at 17.3 µM. Besides, the Ki in series [2] came out at 10.6 µM. For the same compound, the inhibition entry in series [5] was “Active”.

By IC50 is commonly meant the concentration at which inhibition is half-maximal. What is called Ki is the dissociation constant of the complex between target and ligand, obtained from inhibition or displacement. Broadly, the Km is the substrate concentration at which the rate is half of its maximum.
